A word on the LD50: it is the dose at which mortality reaches 50%.

For data set [1], the system named is osteoblastic cells derived from murine calvaria. The experiment in a line: Etoposide-induced apoptosis of osteoblastic cells, trypan blue uptake. Conditions: for Suppression by 10^−8 M Flutamide: suppression of the anti-apoptotic effect by androgen receptor antagonist; for Lowest Effective Concentration: inhibition of etoposide-induced osteoblast apoptosis, 1 hour pretreatment; for anti-apoptotic effect on osteoblastic cells after pretreatment with ICI182,780: test agent 10^−8 M, ICI182,780 10^−7 M, 1 h pretreatment. The format is cell-based. As to the method: Osteoblastic cells derived from murine calvaria were pretreated with the sterols for 1 hour before the addition of the pro-apoptotic agent, etoposide. Apoptosis was determined after 6 hours by trypan blue uptake (Jilka et al, J. Bone and Min. Res. 13:793:802, 1998). * indicates p<0.05 versus etoposide alone, by analysis of variance (ANOVA) (Student-Newman-Keuls method).
Osteoblastic cells derived from murine calvaria were pretreated for 1 hour with the pure receptor antagonist ICI182,780 (10^−7 M) before the addition of the test agents (10^−8 M). Apoptosis was induced and quantified as described in FIG. 3. * indicates p<0.05 versus etoposide alone, by ANOVA (Student-Newman-Keuls method).
In this experiment, osteoblastic cells were derived from murine calvaria and were pretreated with the sterols for 1 hour before the addition of the pro-apoptotic agent, etoposide.
In these experiments, cells were pretreated with the indicated concentrations of the various compounds for 1 hour, in the absence or presence of the androgen receptor antagonist flutamide, before the addition of the proapoptotic agent etoposide. Apoptosis was determined after 6 hours by trypan blue uptake as described in FIG. 3.

Data set [2] deals with T1, murine estrogen receptor-beta (mERβ) (Mus musculus, UniProt O08537).
T1 construct: expressed in transfected cells
T1 sequence (O08537 whole entry): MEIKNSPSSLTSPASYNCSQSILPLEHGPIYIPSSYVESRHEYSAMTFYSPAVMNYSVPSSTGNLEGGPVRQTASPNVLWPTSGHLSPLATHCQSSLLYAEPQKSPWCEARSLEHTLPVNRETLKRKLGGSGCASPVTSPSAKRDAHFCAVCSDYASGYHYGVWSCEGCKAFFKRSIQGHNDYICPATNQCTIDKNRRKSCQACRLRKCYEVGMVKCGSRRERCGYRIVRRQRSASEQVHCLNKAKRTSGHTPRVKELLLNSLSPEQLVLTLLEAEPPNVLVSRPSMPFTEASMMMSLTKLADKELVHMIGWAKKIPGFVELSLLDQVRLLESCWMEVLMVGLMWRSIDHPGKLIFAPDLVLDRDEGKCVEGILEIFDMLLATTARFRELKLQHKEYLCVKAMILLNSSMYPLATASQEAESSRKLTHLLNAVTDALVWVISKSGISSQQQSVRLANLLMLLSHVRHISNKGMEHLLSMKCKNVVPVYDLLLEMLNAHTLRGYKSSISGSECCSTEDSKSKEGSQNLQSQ
The experiment in a line: Etoposide-induced apoptosis in HeLa cells stably transfected with mERβ. The format is cell-based, human. Conditions: 10^−8 M, 1 h; etoposide 5×10^−5 M, 6 hour. An excerpt: (§1) CMV promoter alone and CMV promoter-driven cDNA for mERα or mErβ were stably transfected into HeLa cells. […] Cells were trypsinized, pelleted and trypan blue positive cells enumerated.
(§2) In this experiment, instead of calvaria cells, human HeLa cells which contain undetectable, if any, estrogen receptor were used. HeLa cells were stably transfected with either a CMV promoter-driven cDNA for the murine estrogen receptor-alpha (mERα) or a CMV promoter-driven cDNA for the murine estrogen receptor-beta (mERβ). […] Cells were trypsinized, pelleted and trypan blue positive cells were enumerated.

In data set [3] the test system is wild type HeLa cells. The experiment in a line: Etoposide-induced apoptosis in wild type HeLa cells. Conditions: 10^−8 M, 1 h; etoposide 5×10^−5 M, 6 hour. The data set is classed as cell-based, human.
From the text: as §1, §2

For data set [4], the system named is MLO-Y4 osteocytic cells. The experiment in a line: Etoposide-induced apoptosis of MLO-Y4 osteocytic cells, trypan blue uptake. Conditions: for antiapoptotic effect on osteocytes after pretreatment with ICI182,780: ICI182,780 10^−7 M, 1 h pretreatment; for inhibition of etoposide-induced apoptosis of osteocytic cell line: MLO-Y4, pretreated 1 h before etoposide, apoptosis after 6 h. The data set is classed as cell-based, murine. As to the method: Cells were pretreated with the indicated concentrations of the compounds for 1 hour before the addition of the pro-apoptotic agent etoposide. Apoptosis was determined after 6 hour by trypan blue uptake as described in FIG. 3. * indicates p<0.05 versus etoposide alone, by ANOVA (Student-Newman-Keuls method).
MLO-Y4 cells were pretreated for 1 hour with the pure receptor antagonist ICI182,780 (10^−7 M) before the addition of the test agents (10^−8 M). Apoptosis was induced and quantified as described in FIG. 3. * indicates p<0.05 versus etoposide alone, by ANOVA (Student-Newman-Keuls method).
In this experiment, MLO-Y4 cells were pretreated with the indicated concentrations of the various compounds for 1 h before the addition of the pro-apoptotic agent, etoposide. Apoptosis was determined after 6 h by trypan blue uptake as described in FIG. 3.

Data set [5] concerns extracellular signal regulated kinases (ERKs) 1 and 2. The experiment in a line: Western blot of phosphorylated ERK1/2 in MLO-Y4 cells. The format is cell-based, murine. Conditions: for activation (phosphorylation) of ERKs: 10^−8 M, 5, 15 or 30 minutes; for ability to activate ERKs in the presence of PD98059: 10^−8 M, 5 minutes, 50 μM PD98059. As to the method:
(§3) MLO-Y4 osteocytic cells were incubated for 25 minutes in serum -free medium. […] Cell lysates were prepared and proteins were separated by electrophoresis in polyacrylamide gels and transferred to PVDF membranes. Western blotting was performed using a specific antibody recognizing phosphorylated ERKs 1 and 2, followed by reblotting with an antibody recognizing total ERKs. Blots were developed by enhanced chemiluminescence.
MLO-Y4 cells were incubated for 25 minutes in serum-free medium in the presence or absence of 50 μM PD98059. […] Cell lysates were prepared and proteins were separated by electrophoresis in polyacrylamide gels and transferred to PVDF membranes. Western blotting was performed using a specific antibody recognizing phosphorylated ERKs 1 and 2, followed by reblotting with an antibody recognizing total ERKs. Blots were developed by enhanced chemiluminescence.
as §3, with “In this experiment, MLO-Y4” for “MLO-Y4”, “serum-free” for “serum -free”, “extracellular signal regulated kinases” for “ERKs”, “extracellular signal regulated kinases.” for “ERKs.”, “chemiluminescence. […] This effect is too rapid to be accounted for by the classical mechanism of estrogen action.” for “chemiluminescence.”
In this experiment, MLO-Y4 osteocytic cells were incubated for 25 minutes in serum-free medium in the presence or absence of 50 μM PD98059. […] Cell lysates were prepared and proteins were separated by electrophoresis in polyacrylamide gels and transferred to PVDF membranes. Western blotting was performed using a specific antibody recognizing phosphorylated extracellular signal regulated kinases 1 and 2, followed by reblotting with an antibody recognizing total extracellular signal regulated kinases. Blots were developed by enhanced chemiluminescence.
(In general: In western blotting, separated proteins are transferred to a membrane and probed.)

The subject of data set [6] is MLO-Y4 osteocytic cells. The data set is described as follows: Dexamethasone-induced apoptosis of MLO-Y4 cells with PD98059. The data set is classed as cell-based, murine. Conditions: 10^−8 M; PD98059 1 hour pretreatment; dexamethasone 6 hours. The method, then:
Apoptosis was induced by incubation with the pro-apoptotic agent dexamethasone for 6 hour and quantified as described in FIG. 3. * indicates p<0.05 versus the corresponding control group without dexamethasone, by ANOVA (Student-Newman-Keuls method).
That indeed the anti-apoptotic effect of all the compounds tested herein was mediated via activation of ERKs was established by the results of the experiments shown in FIG. 10. […] Apoptosis was induced by incubation with the pro-apoptotic agent dexamethasone for 6 hours and quantified as described in FIG. 3.

Data set [7] has as its system osteoclasts. Conditions: increased from approximately 0.5%; cited from earlier work.
The conditions of data set [8]: rats, intravenously; cited from earlier work.
For data set [9] the following is noted: after one year of treatment; cited from earlier work.
For data set [10] the following is noted: for at least four years; cited from earlier work.
The subject of data set [11] is osteoblasts. Conditions: intermittent administration in mice; from 1.7-2.2%; cited from earlier work.

As for `C[C@]12CCC(=O)C=C1CC[C@@H]1[C@@H]2CC[C@]2(C)C(=O)CC[C@@H]12` [4-androstene-3,17-dione], the “Suppression by 10^−8 M Flutamide” value in data set [1] is “yes”.
`C[C@]12CC[C@H]3[C@@H](CC=C4C[C@@H](O)CC[C@@]43C)[C@@H]1CC[C@@H]2O` [5-androstene-3β-17_-diol]: in [1], the “Lowest Effective Concentration” value is given as 10^−8 M and the “Suppression by 10^−8 M Flutamide” value was “yes”.
The like results for `C[C@]12CCC(=O)C[C@@H]1CC[C@@H]1[C@@H]2CC[C@]2(C)[C@@H](O)CC[C@@H]12` [5-α-dihydrotestosterone] were, in that order, 10^−9 M and “yes”.
The like results for `C[C@]12CCC(=O)C[C@@H]1CC[C@@H]1[C@@H]2CC[C@]2(C)[C@@H](O)CC[C@@H]12` [5-β-dihydrotestosterone] were, in that order, 10^−10 M and “yes”.
Regarding `C[C@]12CC[C@@H]3c4ccc(O)cc4CC[C@H]3[C@@H]1CC[C@H]2O` [17α-estradiol], the “inhibition of etoposide-induced apoptosis in HeLa cells transfected with estrogen receptor β” value in data set [2] is reported as “potently inhibited”. The “effect on etoposide-induced apoptosis of wild type HeLa cells” value in data set [3] is listed as “none of the three compounds had any effect”. In data set [4], the “antiapoptotic effect on osteocytes after pretreatment with ICI182,780” value is listed as “abrogated” and the “inhibition of etoposide-induced apoptosis of osteocytic cell line” value is listed as “dose-dependently inhibited”. In data set [1], the “anti-apoptotic effect on osteoblastic cells after pretreatment with ICI182,780” value is reported as “abrogated”. For the same molecule, in [5], the “activation (phosphorylation) of ERKs” value was “activated” and the “ability to activate ERKs in the presence of PD98059” value was “abrogated”. Besides, in data set [6], the “anti-apoptotic effect after pretreatment with PD98059” value is on record as “prevented the anti-apoptotic effect”.
For `C[C@]12CC[C@@H]3c4ccc(O)cc4CC[C@H]3[C@@H]1CC[C@@H]2O` [17β-estradiol], the apoptosis of osteoclasts in [7] was not above 2.7%. Moreover, the “inhibition of etoposide-induced apoptosis in HeLa cells transfected with estrogen receptor β” value in data set [2] is on record as “potently inhibited”. The “effect on etoposide-induced apoptosis of wild type HeLa cells” value in data set [3] is given as “none of the three compounds had any effect”. In [4], the “antiapoptotic effect on osteocytes after pretreatment with ICI182,780” value was “abrogated” and the “inhibition of etoposide-induced apoptosis of osteocytic cell line” value was “dose-dependently inhibited”. Besides, the “inhibition of etoposide-induced osteoblastic cell apoptosis” value in [1] (pretreated 1 hour before etoposide, apoptosis after 6 hours by trypan blue uptake) is listed as “prevented apoptosis”. Further, the “anti-apoptotic effect on osteoblastic cells after pretreatment with ICI182,780” value in [1] was “abrogated”. Moreover, in [5], the “activation (phosphorylation) of ERKs” value is listed as “activated” and the “ability to activate ERKs in the presence of PD98059” value is “abrogated”. For the same molecule, in data set [6], the “anti-apoptotic effect after pretreatment with PD98059” value is given as “prevented the anti-apoptotic effect”.
As for `C[C@]12CC[C@H](OS(=O)(=O)O)CC1=CC[C@@H]1[C@@H]2CC[C@]2(C)C(=O)CC[C@@H]12` [Dehydroisoandrosterone-3-sulfate (DHES), Dehydroisoandrosterone-3-sulfate], in data set [1], the “Lowest Effective Concentration” value is 10^−8 M and the “Suppression by 10^−8 M Flutamide” value is “no*”.
In the case of `CC(=O)N[C@@H](CS)C(=O)O` [N-acetylcysteine, acetamido-mercaptopropionic acid], the LD50 in [8] is 1140 mg/kg.
As to `C[C@]1(O)CC[C@H]2[C@@H]3CCC4=CC(=O)CCC4=C3C=C[C@@]21C` [RU1881], in data set [1], the “Lowest Effective Concentration” value is 10^−8 M and the “Suppression by 10^−8 M Flutamide” value was “yes”.
Regarding `C[C@]12CC[C@H]3[C@@H](CCC4=CC(=O)CC[C@@]43C)[C@@H]1CC[C@@H]2O` [Testosterone], the “Suppression by 10^−8 M Flutamide” value in [1] is “yes”.
In the case of `CC(O)(P(=O)(O)O)P(=O)(O)O` [etidronate], the “reduction of resorption depth in human iliac trabecular bone” value in data set [9] was approximately 30%.
Take `[F-].[Na+]` [sodium fluoride]: in [10], the “increase in vertebral bone mass” value is listed as 10 % a year.

B1: PTH: parathyroid hormone, agent known for its role in calcium homeostasis (protein, UniProt P01270 32-115, looked up)
Parathyroid hormone: SVSEIQLMHNLGKHLNSMERVEWLRKKLQDVHNFVALGAPLAPRDAGSQRPRKKEDNVLVESHEKSLGEADKADVNVLTKAKSQ
modifications: Parathyroid hormone
notes: parathyroid hormone, agent known for its role in calcium homeostasis
In the case of B1, in data set [11], the “prevalence of osteoblast apoptosis” value is listed as 0.1-0.4%.

The values above are taken from patent US20040224884A1, “Methods of screening for apoptosis-controlling agents for bone anabolic therapies and uses thereof” (priority 1998, published 2004).
